Reference: patent publication US10294202B2, “Pyrrolidinones as herbicides” (FMC Corporation, priority 2013, dated 2019)

Assays:
velvetleaf = experiment: Test A pre-/postemergence herbicide test; format: in vivo, Abutilon theophrasti
In short: (§1)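 Formulated compound (non-phytotoxic solvent, surfactant) sprayed pre- onto soil of seeded loam/sand pots or post- onto seedlings at 1–2 leaves; ~10 d greenhouse; 0–100 visual control rating versus untreated.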

barnyardgrass [1] = experiment: Test C flooded paddy test; format: in vivo, Echinochloa crus-galli; conditions: Flood
Source text: (§2) Plant species in the flooded paddy test consisted of rice (Oryza sativa), sedge, umbrella (small-flower umbrella sedge, Cyperus difformis), ducksalad (Heteranthera limosa), and barnyardgrass (Echinochloa crus-galli) grown to the 2-leaf stage for testing. At time of treatment, test pots were flooded to 3 cm above the soil surface, treated by application of test compounds directly to the paddy water, and then maintained at that water depth for the duration of the test. Treated plants and controls were maintained in a greenhouse for 13 to 15 days, after which time all species were compared to controls and visually evaluated. Plant response ratings, summarized in Table C, are based on a scale of 0 to 100 where 0 is no effect and 100 is complete control. A dash (-) response means no test result.

ducksalad = experiment: Test C flooded paddy test; format: in vivo, Heteranthera limosa; conditions: Flood
Source text: as §2

wheat = experiment: Test A pre-/postemergence herbicide test; format: in vivo, Triticum aestivum
In short: as §1

sedge, umbrella = experiment: Test C flooded paddy test; format: in vivo, Cyperus difformis; conditions: Flood
Source text: as §2

corn = experiment: Test A pre-/postemergence herbicide test; format: in vivo, Zea mays
In short: as §1

barnyardgrass [2] = experiment: Test A pre-/postemergence herbicide test; format: in vivo, Echinochloa crus-galli
In short: as §1

crabgrass, large = experiment: Test A pre-/postemergence herbicide test; format: in vivo, Digitaria sanguinalis
In short: as §1

pigweed = experiment: Test A pre-/postemergence herbicide test; format: in vivo, Amaranthus retroflexus
In short: as §1

morningglory = experiment: Test A pre-/postemergence herbicide test; format: in vivo, Ipomoea spp.
In short: as §1

rice = experiment: Test C flooded paddy test; format: in vivo, Oryza sativa; conditions: Flood
Source text: as §2

giant foxtail = experiment: Test A pre-/postemergence herbicide test; format: in vivo, Setaria faberii
In short: as §1

[3] = Postemergence, 500 g ai/ha, 0 to 100 scale (0 no effect, 100 complete control)
[4] = Preemergence, 125 g ai/ha, visual rating on 0 to 100 scale (0 no effect, 100 complete control)
[5] = preemergence, 500 g ai/ha, 0 to 100 scale
[6] = 31 g ai/ha, scale of 0 to 100 where 0 is no effect and 100 is complete control, 13 to 15 days
[7] = 62 g ai/ha, scale of 0 to 100 where 0 is no effect and 100 is complete control, 13 to 15 days
[8] = 125 g ai/ha, scale of 0 to 100 where 0 is no effect and 100 is complete control, 13 to 15 days
[9] = Postemergence, 125 g ai/ha, 0 to 100 scale, 0 no effect, 100 complete control
[10] = Postemergence, 1000 g ai/ha, 0 to 100 scale (0 no effect, 100 complete control)
[11] = Preemergence, 1000 g ai/ha, visual rating on 0 to 100 scale (0 no effect, 100 complete control), approx. 10 days

O=C1NCC(c2cccc(F)c2)C1C(=O)Nc1ccccc1C(F)(F)F (racemic) [Compound 2]
Plant response rating, Velvetleaf (velvetleaf; [3]): 0 | Velvetleaf plant response rating (velvetleaf; [4]): 0 | Plant response rating, Velvetleaf (velvetleaf; [5]): 0 | Plant response rating, Barnyardgrass (barnyardgrass [1]; [6]): 0 | Plant response rating, Barnyardgrass (barnyardgrass [1]; [7]): 0 | Plant response rating, Barnyardgrass (barnyardgrass [1]; [8]): 0 | Plant response rating, Barnyardgrass (barnyardgrass [1]; 250 g ai/ha, scale 0 to 100): 0 | Plant response rating, Ducksalad (ducksalad; [6]): 0 | Plant response rating, Ducksalad (ducksalad; [7]): 0 | Plant response rating, Ducksalad (ducksalad; [8]): 0 | Plant response rating, Ducksalad (ducksalad; 250 g ai/ha, scale 0 to 100): 0 | Plant response rating, Wheat (wheat; [3]): 0 | Wheat plant response rating (wheat; [4]): 0 | Plant response rating, Wheat (wheat; [5]): 0 | Plant response rating, Sedge, Umbrella (sedge, umbrella; [6]): 0 | Plant response rating, Sedge, Umbrella (sedge, umbrella; [7]): 0 | Plant response rating, Sedge, Umbrella (sedge, umbrella; [8]): 0 | Plant response rating, Sedge, Umbrella (sedge, umbrella; 250 g ai/ha, scale 0 to 100): 0 | Plant response rating, Corn (corn; [9]): 0 | Plant response rating, Corn (corn; [3]): 0 | Corn plant response rating (corn; [4]): 0 | Plant response rating, Corn (corn; [5]): 0 | Plant response rating, Barnyardgrass (barnyardgrass [2]; [9]): 30 | Plant response rating, Barnyardgrass (barnyardgrass [2]; [3]): 60 | Barnyardgrass plant response rating (barnyardgrass [2]; [4]): 30 | Plant response rating, Barnyardgrass (barnyardgrass [2]; preemergence, 500 g ai/ha, 0 to 100 scale (0 no effect, 100 complete control)): 60 | Plant response rating, Crabgrass, Large (crabgrass, large; [9]): 50 | Plant response rating, Crabgrass, Large (crabgrass, large; [3]): 70 | Crabgrass, Large plant response rating (crabgrass, large; [4]): 90 | Plant response rating, Crabgrass, Large (crabgrass, large; [5]): 90 | Plant response rating, Pigweed (pigweed; [3]): 0 | Pigweed plant response rating (pigweed; [4]): 0 | Plant response rating, Pigweed (pigweed; [5]): 0 | Plant response rating, Morningglory (morningglory; [3]): 0 | Morningglory plant response rating (morningglory; [4]): 0 | Plant response rating, Morningglory (morningglory; [5]): 0 | Plant response rating, Rice (rice; [6]): 0 | Plant response rating, Rice (rice; [7]): 0 | Plant response rating, Rice (rice; [8]): 0 | Plant response rating, Rice (rice; 250 g ai/ha, scale 0 to 100): 0 | Plant response rating, Foxtail, Giant (giant foxtail; [9]): 30 | Plant response rating, Foxtail, Giant (giant foxtail; [3]): 60 | Foxtail, Giant plant response rating (giant foxtail; [4]): 90 | Plant response rating, Foxtail, Giant (giant foxtail; [5]): 90

O=C1NCC(c2ccc(F)c(F)c2)C1C(=O)Nc1cccc(Cl)c1 (racemic) [Compound 18]
Plant response rating, Velvetleaf (velvetleaf; [10]): 0 | Plant response rating, Velvetleaf (velvetleaf; [11]): 0 | Plant response rating, Barnyardgrass (barnyardgrass [1]; [6]): 0 | Plant response rating, Barnyardgrass (barnyardgrass [1]; [7]): 0 | Plant response rating, Barnyardgrass (barnyardgrass [1]; [8]): 0 | Plant response rating, Barnyardgrass (barnyardgrass [1]; 250 g ai/ha, scale 0 to 100): 0 | Plant response rating, Ducksalad (ducksalad; [6]): 0 | Plant response rating, Ducksalad (ducksalad; [7]): 0 | Plant response rating, Ducksalad (ducksalad; [8]): 0 | Plant response rating, Ducksalad (ducksalad; 250 g ai/ha, scale 0 to 100): 0 | Plant response rating, Wheat (wheat; [10]): 0 | Plant response rating, Wheat (wheat; [11]): 0 | Plant response rating, Sedge, Umbrella (sedge, umbrella; [6]): 0 | Plant response rating, Sedge, Umbrella (sedge, umbrella; [7]): 0 | Plant response rating, Sedge, Umbrella (sedge, umbrella; [8]): 0 | Plant response rating, Sedge, Umbrella (sedge, umbrella; 250 g ai/ha, scale 0 to 100): 0 | Plant response rating, Corn (corn; [10]): 0 | Plant response rating, Corn (corn; [11]): 0 | Plant response rating, Barnyardgrass (barnyardgrass [2]; [10]): 50 | Plant response rating, Barnyardgrass (barnyardgrass [2]; [11]): 80 | Plant response rating, Crabgrass, Large (crabgrass, large; [10]): 70 | Plant response rating, Crabgrass, Large (crabgrass, large; [11]): 80 | Plant response rating, Pigweed (pigweed; [10]): 0 | Plant response rating, Pigweed (pigweed; [11]): 0 | Plant response rating, Morningglory (morningglory; [10]): 0 | Plant response rating, Morningglory (morningglory; [11]): 0 | Plant response rating, Rice (rice; [6]): 0 | Plant response rating, Rice (rice; [7]): 0 | Plant response rating, Rice (rice; [8]): 0 | Plant response rating, Rice (rice; 250 g ai/ha, scale 0 to 100): 0 | Plant response rating, Foxtail, Giant (giant foxtail; [10]): 70 | Plant response rating, Foxtail, Giant (giant foxtail; [11]): 80
